Measurements: patent publication US20070265245A1, “S-Mirtazapine For The Treatment Of Hot Flush” (N.V. Organon, priority 2004, published 2007)

Legend:
Format in all cases: in vivo
ovariectomized rats [1] = assay: Locomotor activity of ovariectomized rats, telemetry; conditions: for locomotor activity (decrease to): from the first treatment onwards, vehicle around 1.2 cpm
Method: (§1) The effect of the maleate salt of S-mirtazapine was measured in an animal model for hot flushes. The model is based on the observation that the drop in tail skin temperature at the transition from the rest to the active phase in rats is attenuated after ovariectomy. The locomotor activity of the rats was also measured.
(§2) Tail skin temperature of the rats was measured by use of the telemetry system from Data Sciences International (DSI), a division of Transoma Medical, Inc., USA. This system comprises implantable wireless transmitters (TA10TA-F40 W/TP), receivers (RPC-1 and RLA1020), a data exchange matrix (DEM), and a data acquisition and analysis system (DQ ART 2.2 silver version).
(§3) The S-mirtazapine maleate was dissolved in 0.9% saline with 5% mulgofen. Compound and vehicle were administered intraperitoneally. Sham placebo and ovariectomized(OVX)/placebo groups received 2 ml/kg/day saline and compound treated groups received 10, 30 or 100 mg/kg/day in a volume of 2 ml/kg/day. Here, the indicated amounts refer to the weight of the maleate salt of S-mirtazepine.
(§4) Female rats from the Crl:WU strain, weighing 225-250 g at arrival, were supplied by CPB Harlan, The Netherlands. Rats were housed individually in Macrolon™ cages (38×22×15 cm) with a sawdust bedding and “Enviro Dry™” as cage enrichment. The day after arrival the rats were ovariectomized or sham operated and the transmitter was implanted intraperitoneally under isoflurane aneasthesia. After surgery the rats were placed in a temperature controlled room (21.5±1° C.) with an adapted light/dark cycle (lights off 9:30 h a.m., lights on 7:30 h p.m.). They were allowed to recover from surgery and to adapt to the light/dark cycle for at least 2 weeks. Food and water were given ad libitum.
(§5) Treatment groups were randomized over the OVX groups. The rats were injected intraperitoneally with vehicle or S-mirtazapine maleate once a day at 11:00 a.m. for a period of 5 days. The tail skin temperature and the locomotor activity of the rats were measured every 5 minutes continuously, but the measurements between 12:00 and 02:00 pm (in which period the maximal effect of S-mirtazapine was observed) were used for calculations of the treatment effects. During this period the rats remained completely undisturbed. Before 9:30 am (the time the light turned off) the rats could be taken care of.
(§6) Body weights of the rats were determined before and after the treatment period. Data were expressed as mean ±S.E.M. unless otherwise specified. For testing statistical significance the Analysis of Variance (ANOVA) was used. The data were logarithmically transformed to normalize variations. A value of P<0.05 was considered to be significant.
Data were collected for each rat for 7 seconds every 5 minutes during two hours starting one hour after drug administration (11:00 a.m.). The mean tail skin temperature over this 2-h period was calculated for each rat. In addition, the group means were calculated together with the standard error of the mean (SEM). The tail skin temperature is expressed in degrees centigrade (°C.) and locomotor activity in counts per minutes (cpm).
The number of animals in the different test groups varied between 5-8.

[2] = Body weight of treated rats before and after treatment period; conditions: experiment 1, 10 mg/kg i.p., 5 days
Method: as §6

ovariectomized rats [3] = assay: Tail skin temperature in ovariectomized rats (animal model for hot flushes), telemetry; conditions: for restoration of the attenuation of the OVX-induced drop in tail skin temperature: summary; for TST lower than the sham operated group: from day 2 onwards
Method: as §1, §2, §3, §4
The left and right flank and the rear end of the back above the tail implant of the rat were shaved. The rats were anaesthetized with isoflurane (FORENE®/1-chloro-2,2,2,-trifluorethyl-difluoromethyl-ether, Abbott). The operation area was disinfected with Hibicet® (1.5% m/v chloorhexidinedigluconaat and 1.5% m/v cetrimide). The rats were bilateral ovariectomized (OVX) or sham operated. The incision made in the right flank was also used to implant the transmitter in the peritoneal cavity. When closing the abdomen the transmitter was fixed to the abdominal muscles with stitches.
On the back of the rat in height of the hips, a small incision in the skin was made and the thermistor-tipped probe was led to the back of the rat. From here the probe was brought under the skin in the tail to about 2 cm from the base of the tail. The lead was fixed with a stitch at the musculus biceps femoris. To complete the operation the skin was closed with wound clips. Immediately after surgery the rats were treated with the analgesic buprenorphine 50 μg/kg sc (Temgesic®, Schering-Plough).
as §5, §6
Data were collected for each rat for 7 seconds every 5 minutes during two hours starting one hour after drug administration (11:00 a.m.). The mean tail skin temperature over this 2-h period was calculated for each rat. […]

With `CN1CCN2c3ncccc3Cc3ccccc3[C@H]2C1.O=C(O)/C=C\C(=O)O` [S-mirtazapine maleate] the locomotor activity (ovariectomized rats [1]; 30 mg/kg, summary, effect not statistically significant) was “reduced”, the “locomotor activity compared to OVX placebo group” value (ovariectomized rats [1]; experiment 1, 10 mg/kg i.p.) was “no significant effect” and the “locomotor activity compared to sham operated placebo group” value (ovariectomized rats [1]; experiment 1, 10 mg/kg/day i.p., day 3) was “significant reduction”. The “effect on locomotor activity” value (ovariectomized rats [1]; experiment 2, 10 mg/kg/day, rest of experiment at level of placebo treated OVX rats) was “only an effect on locomotor activity after the first treatment”, the “locomotor activity at the end of the treatment period” value (ovariectomized rats [1]; experiment 2, 30 mg/kg i.p.) was “about 0.5 cpm” and the “drop in locomotor activity” value (ovariectomized rats [1]; experiment 2, 30 mg/kg i.p., after 5 days treatment) was 50%. The “locomotor activity (decrease to)” value (ovariectomized rats [1]; experiment 2, 30 mg/kg i.p.) was “about 0.5 cpm”, the “locomotor activity at the end of the treatment period” value (ovariectomized rats [1]; experiment 2, 100 mg/kg i.p.) was “increased to the level of the vehicle treated rats” and the “locomotor activity (decrease to)” value (ovariectomized rats [1]; experiment 2, 100 mg/kg i.p.) was “about 0.5 cpm”. The “locomotor activity after 5 days treatment compared to the OVX placebo group” value (ovariectomized rats [1]; experiment 2, any dose group (10, 30, 100 mg/kg)) was “No statistically significant effect”, the “effect on body weight (BW)” value [2] was “no significant effect” and the “restoration of the attenuation of the OVX-induced drop in tail skin temperature” value (ovariectomized rats [3]; 10 mg/kg i.p., OVX rats) was “not”. The “restoration of the attenuation of the OVX-induced drop in tail skin temperature” value (ovariectomized rats [3]; 30 mg/kg i.p., OVX rats) was “restored”, the “effect against hot flush (conclusion)” value (ovariectomized rats [3]; 30 mg/kg in rats) was “effect against hot flush” and the “effect against hot flush (conclusion)” value (ovariectomized rats [3]; 100 mg/kg in rats) was “effect against hot flush”. The “increase in TST after the first treatment day” value (ovariectomized rats [3]; experiment 1, 10 mg/kg/day i.p., OVX rats) was “approximately 2 °C”, the “effect on tail skin temperature on day 5” value (ovariectomized rats [3]; experiment 1, 10 mg/kg/day i.p., day 5) was “no effect” and the “TST after the end of treatment” value (ovariectomized rats [3]; experiment 1, 10 mg/kg/day i.p., all groups returned to normal values for OVX rats) was “about 29 °C”. The “TST during the treatment period” value (ovariectomized rats [3]; experiment 1, 10 mg/kg/day i.p., compared to sham/placebo and compared to OVX/placebo at day 4) was “significantly higher level”, the “tail skin temperature compared to the OVX rats after 5 consecutive days” value (ovariectomized rats [3]; experiment 2, 10 mg/kg) was “no effect” and the “increase in TST after the first treatment” value (ovariectomized rats [3]; experiment 2, 10 mg/kg/day i.p.) was 1-3 °C. The “TST during the treatment period compared to the OVX rats” value (ovariectomized rats [3]; experiment 2, 10 mg/kg/day i.p., day 2 and 3) was “significantly higher level”, the “TST after end of treatment” value (ovariectomized rats [3]; experiment 2, 10 mg/kg/day i.p., returned to normal TST values of OVX rats) was 28-29 °C and the “TST after the end of treatment” value (ovariectomized rats [3]; experiment 2, 30 mg/kg i.p.) was “returned to normal values of OVX rats”. For the same compound, the “TST compared to the sham operated group after 5 consecutive days” value (ovariectomized rats [3]; experiment 2, 30 mg/kg i.p.) was “statistically significantly below”, the “restoration of the fall in TST” value (ovariectomized rats [3]; experiment 2, 30 mg/kg i.p.) was “significantly restored” and the “tail skin temperature compared to the OVX group after 5 consecutive days” value (ovariectomized rats [3]; experiment 2, 30 mg/kg i.p.) was “significant decrease”. For the same compound, the “TST versus sham operated placebo group on day 5” value (ovariectomized rats [3]; experiment 2, 30 mg/kg i.p., day 5) was “statistically significantly different”, the “TST lower than the sham operated group” value (ovariectomized rats [3]; experiment 2, 30 mg/kg i.p.) was 2-4 °C and the “TST after the end of treatment” value (ovariectomized rats [3]; experiment 2, 100 mg/kg i.p.) was “stayed up to 2 days after the end of treatment at a lower level”. The “restoration of the fall in TST” value (ovariectomized rats [3]; experiment 2, 100 mg/kg i.p.) was “significantly restored”, the “tail skin temperature compared to the OVX group after 5 consecutive days” value (ovariectomized rats [3]; experiment 2, 100 mg/kg i.p.) was “significant decrease” and the “TST lower than the sham operated group” value (ovariectomized rats [3]; experiment 2, 100 mg/kg i.p.) was 2-4 °C.
